US9611261B2, “Perfluorinated cyclopropyl fused 1,3-oxazin-2-amine compounds as beta-secretase inhibitors and methods of use” (AMGEN INC., priority 2013, dated 2017)

Columns and labels:
[1] = molecular target: Beta Secretase enzyme (BACE) (Homo sapiens (Human), UniProt P56817); experiment: In vitro enzymatic BACE FRET assay; format: biochemical; details: read-out: BACE1 Enzyme assay IC50
Description: In Vitro Enzymatic BACE FRET (Fluorescence Resonance Energy Transfer) Assay (Enzyme Assay Data in the Example Table I)
The assay buffer used in this screen is 0.05 M acetate, pH 4.2, 10% DMSO final, 100 uM genapol (which is a nonionic detergent, below its Critical Micelle Concentration). […] This assay is effectively started by the addition of FRET substrate (50 nM) and the combination is incubated for one hour. The FRET assay is terminated with by addition of Tris buffer, which raises the pH to neutrality, and the fluorescence is determined. The FRET substrate is a peptide with commercially available fluorophore and quencher, on opposite sides of the BACE cleavage site.

[2] = molecular target: Recombinant Cat D (Cathepsin D) (Homo sapiens (Human), UniProt P07339); experiment: In vitro enzymatic Cathepsin D (Cat D) FRET assay; format: biochemical; details: read-out: CatD IC50
Description: Recombinant Cat D was expressed in CHO cells. The assay buffer for CathepsinD is 0.05 M citrate pH 3.5, 10% DMSO final, 5 mM CHAPS. […] The assays are effectively started by the addition of different FRET substrates (20 nM for Cat D) and the combination is incubated for one hour. The FRET assay is terminated with by addition of Tris buffer, which raises the pH to neutrality, and the fluorescence is determined. The FRET substrate is a peptide with commercially available fluorophore and quencher, on opposite sides of the BACE cleavage site. […] Proteolytic cleavage of the FRET substrate releases quenching of fluorescence (Cat D excitation 500 nm and emission 580 nm).

Aβ in lumbar CSF = details: healthy volunteers, cited from earlier work

Chain of Beta Secretase enzyme (BACE) (P56817 46-501, species assumed): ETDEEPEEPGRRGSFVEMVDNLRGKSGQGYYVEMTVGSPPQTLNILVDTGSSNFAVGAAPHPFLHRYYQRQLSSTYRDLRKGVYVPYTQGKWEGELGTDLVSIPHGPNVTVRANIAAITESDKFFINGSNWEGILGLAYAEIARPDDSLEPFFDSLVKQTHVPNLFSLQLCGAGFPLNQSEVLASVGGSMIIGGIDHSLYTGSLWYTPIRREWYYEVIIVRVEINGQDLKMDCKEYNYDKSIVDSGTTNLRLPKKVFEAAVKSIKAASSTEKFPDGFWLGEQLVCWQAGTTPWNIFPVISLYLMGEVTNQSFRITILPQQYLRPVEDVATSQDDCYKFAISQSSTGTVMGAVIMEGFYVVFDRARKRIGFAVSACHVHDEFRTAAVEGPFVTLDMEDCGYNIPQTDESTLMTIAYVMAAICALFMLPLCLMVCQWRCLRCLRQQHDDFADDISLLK
Chain of Recombinant Cat D (Cathepsin D) (P07339 65-412, species assumed): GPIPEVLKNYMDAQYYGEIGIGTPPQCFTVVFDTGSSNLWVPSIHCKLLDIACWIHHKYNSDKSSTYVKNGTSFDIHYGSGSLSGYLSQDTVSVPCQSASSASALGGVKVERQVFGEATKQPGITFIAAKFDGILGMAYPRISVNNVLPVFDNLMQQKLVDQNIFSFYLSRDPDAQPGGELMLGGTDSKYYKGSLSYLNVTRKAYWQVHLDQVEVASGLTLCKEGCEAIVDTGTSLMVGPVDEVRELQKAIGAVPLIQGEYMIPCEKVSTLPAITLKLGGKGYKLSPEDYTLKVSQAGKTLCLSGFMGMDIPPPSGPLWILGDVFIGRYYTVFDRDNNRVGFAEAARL

Row | Structure (SMILES) | IC50 [1] [µM] | IC50 [2] [µM] | Aβ reductions in lumbar CSF (Aβ in lumbar CSF; after oral dosing of 30 or 90 mg) | safety and tolerability (Aβ in lumbar CSF; Ph I)
1 | N#Cc1ccc2c(c1)OCC[C@@H]2Nc1ccc(F)c([C@@]2(C(F)F)N=C(N)O[C@@H]3C[C@@H]32)c1 (mixture of isomers) [Example 383, (R)-4-((3-((1R,5S,6R)-3-amino-5-(difluoromethyl)-2-oxa-4-azabicyclo[4.1.0]hept-3-en-5-yl)-4-fluorophenyl)amino)chroman-7-carbonitrile and (S)-4-((3-((1R,5S,6R)-3-amino-5-(difluoromethyl)-2-oxa-4-azabicyclo[4.1.0]hept-3-en-5-yl)-4-fluorophenyl)amino)chroman-7-carbonitrile] | 0.968 | 206 |  | 
2 | N#Cc1cnc2c(c1)CCC[C@@H]2Nc1ccc(F)c([C@@]2(C(F)F)N=C(N)O[C@@H]3C[C@@H]32)c1 (mixture of isomers) [Example 403, (R)-8-((3-((1R,5S,6R)-3-amino-5-(difluoromethyl)-2-oxa-4-azabicyclo[4.1.0]hept-3-en-5-yl)-4-fluorophenyl)amino)-5,6,7,8-tetrahydroquinoline-3-carbonitrile and (S)-8-((3-((1R,5S,6R)-3-amino-5-(difluoromethyl)-2-oxa-4-azabicyclo[4.1.0]hept-3-en-5-yl)-4-fluorophenyl)amino)-5,6,7,8-tetrahydroquinoline-3-carbonitrile] | 2.85 | 469 |  | 
3 | C#CCOc1cnc(C(=O)Nc2cc(F)c(Cl)c([C@]3(CF)N=C(N)O[C@H]4C[C@H]43)c2)cn1 (racemic) [Example 140, N-(3-((1R/S,5S/R,6R/S)-3-amino-5-(fluoromethyl)-2-oxa-4-azabicyclo[4.1.0]hept-3-en-5-yl)-4-chloro-5-fluorophenyl)-5-(prop-2-yn-1-yloxy)pyrazine-2-carboxamide] | 0.006 | 86.9 |  | 
4 | NC1=N[C@@](c2cc(NC(=O)c3cnc(Cl)cn3)ccc2F)(C(F)F)[C@H]2C[C@H]2O1 [Example 261, N-(3-((1R,5S,6R)-3-amino-5-(difluoromethyl)-2-oxa-4-azabicyclo[4.1.0]hept-3-en-5-yl)-4-fluorophenyl)-5-chloropyrazine-2-carboxamide] | 0.037 | 444 |  | 
5 | COc1cc(Cl)cnc1C(=O)Nc1ccc(Cl)c([C@@]2(CF)N=C(N)O[C@@H]3C[C@@H]32)c1 [Example 297, N-(3-((1R,5S,6R)-3-amino-5-(fluoromethyl)-2-oxa-4-azabicyclo[4.1.0]hept-3-en-5-yl)-4-chlorophenyl)-5-chloro-3-methoxypicolinamide] |  | 835 |  | 
6 | C[C@@]1(c2cc(NC(=O)c3ccc(Cl)cn3)cnc2F)N=C(N)O[C@H]2C[C@H]21 [Example 333] | 0.13 | 816 |  | 
7 | COc1cnc2c(Nc3cc(Cl)c(F)c([C@@]4(CF)N=C(N)O[C@@H]5C[C@@H]54)c3)nccc2n1 [Example 356, (1R,5S,6R)-5-(3-chloro-2-fluoro-5-((2-methoxypyrido[3,4-b]pyrazin-5-yl)amino)phenyl)-5-(fluoromethyl)-2-oxa-4-azabicyclo[4.1.0]hept-3-en-3-amine] | 0.0659 | 725 |  | 
8 | N#Cc1cnc2c(c1)CC[C@@H]2Nc1ccc(F)c([C@@]2(C(F)F)N=C(N)O[C@@H]3C[C@@H]32)c1 [Example 404] | 0.291 |  |  | 
9 | C[C@@]1(c2cc(-c3cncnc3)c(F)cc2F)CCSC(N)=N1 [LY2811376, (S)-4-(2,4-difluoro-5-pyrimidin-5-yl-phenyl)-4-methyl-5,6-dihydro-4H-[1,3]thiazin-2-ylamine] |  |  | Prominent and long-lasting Aβ reductions | safe and well tolerated
